1 compound from patent publication EP0516861A1, “PYRIDONECARBOXYLIC ACID DERIVATIVE” (BANYU PHARMACEUTICAL CO., LTD., priority 1990, dated 1992) can be followed below.

The nature of series [1]: Acute toxicity against a mouse. It counts as in vivo, CDF₁ mice. As to conditions: 5 mg/kg intravenously, observation for one week. The procedure: 5 mg/kg portions of the compound of Example 9 were intravenously injected into CDF₁ mice (♀, 5 weeks old) according to a conventional manner, respectively.
Series [2] has as its system P388. In words: Life-span prolonging effect on P388 leukemia-bearing mice. It counts as in vivo, CDF₁ mice. The procedure: (§1) In this experiment, 10⁶ L1210 cells or 10⁴ P388 cells were intraperitoneally transplanted into CDF₁ mice (♀, 5 weeks old), a drug in the various concentrations was intraperitoneally injected once a day for continuous 10 days from the day after the transplantation, and survival periods after the tumor transplantation were recorded.

The test system of series [3] is P388/VCR. In words: Proliferation inhibition, multiple drug-resistant P388 cells (MTT method). It counts as cell-based, murine. As to conditions: Mus musculus, 72 h, 3 days culture, read-out: IC₅₀ P388/VCR. Here is the method: (§2) Proliferation inhibition effects againt P388/multiple drug - resistant cells were measured using vincristine and adriamycin as comparative compounds.
(§3) In this experiment, a drug - sensitive strain (P388/S) of a murine leukemia cell P388 and a drug - resistant strain (P388/VCR, T. Turuo, H. Iida, S. Tsukagoshi, et al., Cancer Research 42, 4730 - 4733, 1982) were suspended respectively in RPMI 1640 media containing a drug in various concentrations, 10 % fetal bovine serum and 20 µ M β - mercaptoethanol, respectively, and seeded in a 96 - well microtest plate in a number of 10⁴ cells/well, and cultured at 37°C under CO₂ gas for 3 days. Calculation of 50% proliferation inhibition concentration (IC₅₀) was made by the MTT method (M. C. Alley, D. A. Scudiero, A. Monks, et al., Cancer Research 48, 589 - 601, 1988).
(In general: Tetrazolium dyes change colour on reduction, which living cells bring about.)

For series [4], the target named is DNA topoisomerase II. In words: DNA topoisomerase inhibition activity (DNA relaxation, agarose-gel electrophoresis). It counts as biochemical, murine. As to conditions: relaxation of supercoiled pBR 322 plasmid DNA, 37°C for 10 minutes, enzyme from L1210 nuclei. The procedure:
(§4) In this experiment, as enzymes were used DNA topoisomerase I and DNA topoisomerase II obtained by purifying an extract from the nuclei of cells of L1210 murine leukemia by column chromatography using hydroxylapatite and phosphocellulose, respectively, and as a DNA was used supercoiled pBR 322 plasmid DNA.
(§5) Measurement of inhibition effect was made by the method disclosed in a literature, i. e. Okura et al., Biochem. Biophys. Res. Comm. 157, 183 - 189, 1988, namely by warming at 37°C for 10 minutes the supercoiled DNA in DNA topoisomerase I or DNA topoisomerase II solutions containing a drug in various concentrations, and then detecting the resultant topology changes of the DNA as changes of the electrophoretic images in agarose - gel electrophoresis.

For series [5], the target named is T1, DNA topoisomerase I (Mus musculus, UniProt Q04750).
T1 construct: obtained by purifying an extract from the nuclei of cells of L1210 murine leukemia by column chromatography; endogenous in cells; host or cells: L1210 murine leukemia cells (nuclear extract, purified on hydroxylapatite / phosphocellulose columns)
T1 sequence (Q04750 1-767): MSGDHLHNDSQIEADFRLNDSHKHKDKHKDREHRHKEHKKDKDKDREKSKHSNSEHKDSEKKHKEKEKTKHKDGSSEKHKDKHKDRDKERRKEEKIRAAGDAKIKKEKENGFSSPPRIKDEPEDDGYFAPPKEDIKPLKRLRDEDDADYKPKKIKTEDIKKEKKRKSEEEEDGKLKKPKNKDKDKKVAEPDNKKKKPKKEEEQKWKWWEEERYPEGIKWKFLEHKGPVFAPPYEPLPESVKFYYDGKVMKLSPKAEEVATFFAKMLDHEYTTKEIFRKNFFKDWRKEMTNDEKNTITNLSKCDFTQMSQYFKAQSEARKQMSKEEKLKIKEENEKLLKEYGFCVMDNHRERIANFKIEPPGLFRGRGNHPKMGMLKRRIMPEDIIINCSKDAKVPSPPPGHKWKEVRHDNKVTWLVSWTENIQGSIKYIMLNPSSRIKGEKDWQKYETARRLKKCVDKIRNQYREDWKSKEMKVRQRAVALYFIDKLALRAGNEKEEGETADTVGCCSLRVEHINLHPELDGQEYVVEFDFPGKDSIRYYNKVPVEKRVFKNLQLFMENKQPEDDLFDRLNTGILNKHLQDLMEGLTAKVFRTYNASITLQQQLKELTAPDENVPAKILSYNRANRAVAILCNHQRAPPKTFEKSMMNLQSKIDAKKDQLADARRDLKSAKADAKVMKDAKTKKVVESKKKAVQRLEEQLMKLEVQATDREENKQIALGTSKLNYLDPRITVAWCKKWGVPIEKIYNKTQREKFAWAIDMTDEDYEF
Described as above. As to conditions: relaxation of supercoiled pBR 322 plasmid DNA, 37°C for 10 minutes, enzyme from L1210 nuclei; read-out: IC₅₀ DNA topoisomerase I (converted). Type of series: biochemical, murine. The procedure: as §4, §5

In series [6] the test system is L1210. In words: Life-span prolonging effect on L1210 leukemia-bearing mice. Type of series: in vivo, CDF₁ mice. Here is the method:
as §1

The subject of series [7] is L1210 cells. In words: In vitro cytotoxicity against L1210 murine leukemia (proliferation inhibition). Type of series: cell-based. As to conditions: Mus musculus, 72 h; L1210 cells, cultured 3 days, Coulter counter; read-out: IC₅₀. The procedure: In this experiment, respective 2 × 10⁴ L1210 cells were cultured at 37°C under 5% CO₂ gas for 3 days in respective RPMI 1640 media containing a drug in various concentrations and 10 % fetal bovine serum, and the numbers of the cells after the culture were counted using a Coulter counter.

Series [8] concerns P388/V. In words: Proliferation inhibition, drug-sensitive P388 cells (MTT method). As to conditions: Mus musculus, P388, 72 h, 3 days culture, read-out: IC₅₀ P388/V. Type of series: cell-based, murine. The procedure: as §2, §3
The mark [9] stands for this setting: dose 0.020 mg/kg intraperitoneally once a day for 10 days.
Where [10] appears, read: dose 0.078 mg/kg intraperitoneally once a day for 10 days.
The mark [11] stands for this setting: dose 0.313 mg/kg intraperitoneally once a day for 10 days.

On to `Cl.N[C@@H]1C=CC[C@@H]2CN(c3c(F)cc4c(=O)c(C(=O)O)cn(C5CC5)c4c3F)C[C@@H]21` (single isomer, unassigned) [Compound of Ex.9, (-) - 7 - [(1R*, 2R*, 6S*) - 2 - amino - 8 - azabicyclo [4.3.0]non - 3 - en - 8 - yl] - 1 - cyclopropyl - 6, 8 - difluoro - 1, 4 - dihydro - 4 - oxo - 3 - quinolinecarboxylic acid hydrochloride], for which, in series [1], the “death in acute toxicity test” value is “No case of death”. The figures for the “Mean survival days P388” value in series [2] (setting [9]), in series [2] (setting [10]) and in series [2] (setting [11]) were 12.0 days, 14.0 days and 16.4 days, respectively. The figures for the “T/C % P388” value in series [2] (setting [9]), in series [2] (setting [10]) and in series [2] (setting [11]) were 107%, 125% and 146%, respectively. Also, the IC50 in series [3] was 0.018 µg/mL; in series [5] it was 457 µM; in series [7], 0.019 µg/mL; in series [8] it was 0.018 µg/mL. Further, the “IC₅₀ DNA topoisomerase II” value in series [4] was found to be 2 µg/mL. For the same compound, the results for the “Mean survival days L1210” value in series [6] (setting [9]), in series [6] (setting [10]) and in series [6] (setting [11]) were 31.0 days, 32.4 days and 21.2 days, respectively. For the same compound, the “T/C % L1210” value in series [6] (setting [9]) was 226%; in series [6] (setting [10]), 236%; in series [6] (setting [11]), 155%. For the same compound, the “effect at an administration quantity of 0.02 mg/kg” value in series [6] (life-span prolongation, 0.02 mg/kg intraperitoneal) was “effective”.
